Reference: ChEMBL document CHEMBL3508693 (2016)

Columns and labels:
[1] = % SPP100 in urine and faeces following single oral dose of 300 mg [14C]SPP100 studied in healthy men; assay type: ADME, organism-based, Urine/Feces; conditions: human, in vivo, at 300 mg
[2] = % SPP100 (0-72h) recovered in faeces following single oral dose of [14C] aliskiren hemifumarate at 3 mg.Kg-1 level in marmoset; assay type: ADME, organism-based, Callithrix jacchus, Feces; conditions: in vivo
[3] = biological target: CYP2C9 (Homo sapiens, UniProt P11712); assay: Inhibitory activity of 200 uM SPP100 on 201 Pmoles of cDNA-derived CYP2C9 enzyme in microsome prepared from human lymphoblastoid cell line; assay type: ADME, microsomes; parameters: conc 200 uM, interact cpd conc 6 uM; conditions: probe diclofenac
[4] = biological target: CYP2C19 (Homo sapiens, UniProt P33261); assay: Inhibitory activity of 20 uM SPP100 on 1214 Pmoles of cDNA-derived CYP2C19 enzyme in microsome prepared from human lymphoblastoid cell line; assay type: ADME, microsomes; parameters: conc 20 uM, interact cpd conc 50 uM; conditions: probe (S)-mephenytoin (50 uM)
[5] = % SPP100 recovered in bile following single intravenous administration of 10 mg.Kg-1 [14C] aliskiren hemifumarate in male rat; assay type: ADME, organism-based, HAN:WIST(SPF); conditions: in vivo
[6] = % of radioactivity recovered as aliskiren in urine following oral administration of [14C] aliskiren hemifumarate at 100 mg.Kg-1 level in rat; assay type: ADME, organism-based, Albino HAN:WIST; conditions: in vivo
[7] = biological target: CYP2D6 (Homo sapiens, UniProt P10635); assay: Inhibition of CYP2D6 in human liver microsomes from 10 healthy donors at 200 uM aliskiren (SPP100); assay type: ADME, Microsome; parameters: conc 200 uM; conditions: probe bufuralol (1'-hydroxylation)
[8] = Excretion (0-168h) of radioactivity in urine following oral administration of [14C] aliskiren hemifumarate at 3 mg.Kg-1 level in marmoset; assay type: ADME, organism-based, Callithrix jacchus; conditions: in vivo
[9] = Excretion (168h) of radioactivity in urine following intravenous administration of [14C] aliskiren hemifumarate at 10 mg.Kg-1 level in rat; assay type: ADME, organism-based, Lister-Hooded; conditions: in vivo
[10] = Excretion (168h) of radioactivity in faeces following intravenous administration of [14C] aliskiren hemifumarate at 10 mg.Kg-1 level in rat; assay type: ADME, organism-based, Lister-Hooded, Feces; conditions: in vivo
[11] = Excretion of radioactivity (48-72h) in faeces following single intravenous dose of 10 mg.Kg-1 [14C] aliskiren hemifumarate in mouse; assay type: ADME, organism-based, TgRasH2, Feces; conditions: in vivo
[12] = Excretion of radioactivity (0-24h) in urine following single intravenous dose of 10 mg.Kg-1 [14C] aliskiren hemifumarate in rat; assay type: ADME, organism-based, Albino HAN:WIST; conditions: in vivo
[13] = biological target: Cytochrome P450 3A4 (Homo sapiens, UniProt P08684); assay: Metabolic clearance (ul.min.nmol-1 CYP) of aliskiren hemifumarate for CYP3A4 was determined in human liver microsome incubated with [14C]SPP100 hemifumarate; assay type: ADME; conditions: microsomes
[14] = biological target: T1, Cytochrome P450 4A11 (Homo sapiens, UniProt Q02928); assay: Metabolic clearance (ul.min.nmol-1 CYP) of aliskiren hemifumarate for CYP4A11 was determined in human liver microsome incubated with [14C]SPP100 hemifumarate; assay type: ADME; conditions: microsomes
T1 sequence (Q02928 whole entry): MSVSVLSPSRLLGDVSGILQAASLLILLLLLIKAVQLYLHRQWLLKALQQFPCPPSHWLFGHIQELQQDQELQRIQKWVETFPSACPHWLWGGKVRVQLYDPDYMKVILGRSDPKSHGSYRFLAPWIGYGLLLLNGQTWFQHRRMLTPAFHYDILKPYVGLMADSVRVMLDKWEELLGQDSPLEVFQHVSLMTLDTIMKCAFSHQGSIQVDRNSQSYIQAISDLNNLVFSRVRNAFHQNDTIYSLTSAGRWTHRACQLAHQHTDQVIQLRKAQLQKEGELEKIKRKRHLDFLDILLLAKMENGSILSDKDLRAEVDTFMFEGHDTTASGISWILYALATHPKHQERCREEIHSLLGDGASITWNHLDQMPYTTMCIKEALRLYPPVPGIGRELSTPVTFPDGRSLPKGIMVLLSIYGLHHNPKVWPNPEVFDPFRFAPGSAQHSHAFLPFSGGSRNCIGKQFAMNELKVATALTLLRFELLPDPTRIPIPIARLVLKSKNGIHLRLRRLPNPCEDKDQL

[15] = Concentration of radioactivity in the brown fat following repeated oral administration of [14C] aliskiren hemifumarate at 100 mg.Kg-1 level studied at 24h after 3rd dose in rat; assay type: ADME, organism-based, Albino HAN:WIST, Brown adipose tissue; conditions: in vivo
[16] = Concentration of radioactivity in the brown fat following repeated oral administration of [14C] aliskiren hemifumarate at 100 mg.Kg-1 level studied at 24h after 10th dose in rat; assay type: ADME, organism-based, Albino HAN:WIST, Brown adipose tissue; conditions: in vivo
[17] = Cmax normalised (0-168h) of total radioactivity following single oral administration of [14C] aliskiren hemifumarate at 3 mg.Kg-1 level in marmoset; assay type: ADME, organism-based, Callithrix jacchus, Plasma; conditions: in vivo
[18] = AUC (0-96 or 0-168h) of total radioactivity following single oral administration of [14C] aliskiren hemifumarate at 3 mg.Kg-1 level in marmoset; assay type: ADME, organism-based, Callithrix jacchus, Plasma; conditions: in vivo
[19] = Cmax (0-96h) of unlabeled aliskiren hemifumarate following intravenous administration of aliskiren hemifumarate at 10 mg.Kg-1 level in rat; assay type: ADME, organism-based; conditions: Albino HAN:WIST, plasma
[20] = Effect of 2 week oral dosing of aliskiren hemifumarate at 100 mg.Kg-1 level on plasma creatinine level in female Callithrix jacchus; assay type: toxicity, organism-based; conditions: marmoset, 336 h
[21] = Cmax of aliskiren hemifumarate following 2 week oral dosing of aliskiren hemifumarate at 50 mg.Kg-1 level studied on day 1 in female Callithrix jacchus; assay type: ADME, organism-based; conditions: marmoset, plasma
[22] = Cmax of aliskiren hemifumarate following 2 week oral dosing of aliskiren hemifumarate at 10 mg.Kg-1 level studied on […] in male Callithrix jacchus; assay type: ADME, organism-based; conditions: marmoset, plasma
[23] = Cmax of aliskiren hemifumarate following 2 week oral dosing of aliskiren hemifumarate at 100 mg.Kg-1 level studied on day 14 in female Callithrix jacchus; assay type: ADME, organism-based; conditions: marmoset, plasma
[24] = Tmax of aliskiren hemifumarate following 4 week oral dietary dosing of aliskiren hemifumarate at 1000 mg.Kg-1 level in male mouse; assay type: ADME, organism-based; conditions: CB6F1-TGrasH2, mouse, in vivo
[25] = Cmax of aliskiren hemifumarate following 4 week oral dietary dosing of aliskiren hemifumarate at 1000 mg.Kg-1 level in male mouse; assay type: ADME, organism-based; conditions: CB6F1-TGrasH2, mouse, in vivo
[26] = AUC (0-24h) of aliskiren hemifumarate following 4 week oral dietary dosing of aliskiren hemifumarate at 500 mg.Kg-1 level in female mouse; assay type: ADME, organism-based; conditions: CB6F1-TGrasH2, mouse, plasma
[27] = AUC (0-24h) of aliskiren hemifumarate following 4 week oral dietary dosing of aliskiren hemifumarate at 2000 mg.Kg-1 level in female mouse; assay type: ADME, organism-based; conditions: CB6F1-TGrasH2, mouse, plasma
[28] = AUC (0-24h)/dose of aliskiren hemifumarate following 4 week oral dietary dosing of aliskiren hemifumarate at 1500 mg.Kg-1 level in male mouse; assay type: ADME, organism-based, CB6F1-TGrasH2, Plasma; conditions: in vivo
[29] = AUC(0-24h) of aliskiren hemifumarate following 2 week oral dosing of aliskiren hemifumarate at 50 mg.Kg-1 level studied on day 1 in female Callithrix jacchus; assay type: ADME, organism-based; conditions: marmoset, plasma
[30] = AUCspec of aliskiren hemifumarate following 2 week oral dosing of aliskiren hemifumarate at 10 mg.Kg-1 level studied on day 1 in male Callithrix jacchus; assay type: ADME, organism-based, Plasma; conditions: marmoset, in vivo, 336 h
[31] = Tmax of aliskiren hemifumarate following repeated oral administration of [14C] aliskiren hemifumarate at 100 mg.Kg-1 level studied after 2h of dosing on day 1 in rat; assay type: ADME, organism-based, Albino HAN:WIST; conditions: in vivo
[32] = Cmax (0-168h) of unlabeled aliskiren hemifumarate following single oral administration of aliskiren hemifumarate at 3 mg.Kg-1 level in marmoset; assay type: ADME, organism-based, Callithrix jacchus, Plasma; conditions: in vivo

Sequence of CYP2C9 (P11712 whole entry): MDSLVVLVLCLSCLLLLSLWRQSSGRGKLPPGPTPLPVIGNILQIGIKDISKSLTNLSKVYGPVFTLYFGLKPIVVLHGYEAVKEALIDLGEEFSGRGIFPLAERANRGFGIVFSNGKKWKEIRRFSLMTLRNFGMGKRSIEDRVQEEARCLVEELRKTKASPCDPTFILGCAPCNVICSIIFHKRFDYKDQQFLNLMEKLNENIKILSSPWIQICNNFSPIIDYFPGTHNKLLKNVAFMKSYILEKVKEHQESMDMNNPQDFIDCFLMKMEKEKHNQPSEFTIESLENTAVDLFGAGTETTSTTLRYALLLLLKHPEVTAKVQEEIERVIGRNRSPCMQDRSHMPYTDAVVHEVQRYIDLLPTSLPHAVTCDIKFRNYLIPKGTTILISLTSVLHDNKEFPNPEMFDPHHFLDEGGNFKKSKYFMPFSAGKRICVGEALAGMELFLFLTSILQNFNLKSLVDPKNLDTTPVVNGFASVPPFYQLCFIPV
Sequence of Cytochrome P450 3A4 (P08684 whole entry): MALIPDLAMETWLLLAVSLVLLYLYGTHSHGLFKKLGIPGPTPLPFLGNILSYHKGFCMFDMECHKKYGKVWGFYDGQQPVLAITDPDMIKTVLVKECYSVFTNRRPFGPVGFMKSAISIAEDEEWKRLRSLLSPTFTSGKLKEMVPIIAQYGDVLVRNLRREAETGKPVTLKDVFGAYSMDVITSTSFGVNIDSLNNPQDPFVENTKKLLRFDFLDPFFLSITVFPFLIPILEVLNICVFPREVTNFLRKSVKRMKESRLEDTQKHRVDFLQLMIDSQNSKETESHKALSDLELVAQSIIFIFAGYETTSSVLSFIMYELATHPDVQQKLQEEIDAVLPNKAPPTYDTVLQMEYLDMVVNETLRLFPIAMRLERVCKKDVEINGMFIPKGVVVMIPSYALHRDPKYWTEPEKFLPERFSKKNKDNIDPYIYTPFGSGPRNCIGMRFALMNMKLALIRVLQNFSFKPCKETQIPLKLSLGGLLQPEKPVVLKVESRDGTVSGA
Sequence of CYP2D6 (P10635 whole entry): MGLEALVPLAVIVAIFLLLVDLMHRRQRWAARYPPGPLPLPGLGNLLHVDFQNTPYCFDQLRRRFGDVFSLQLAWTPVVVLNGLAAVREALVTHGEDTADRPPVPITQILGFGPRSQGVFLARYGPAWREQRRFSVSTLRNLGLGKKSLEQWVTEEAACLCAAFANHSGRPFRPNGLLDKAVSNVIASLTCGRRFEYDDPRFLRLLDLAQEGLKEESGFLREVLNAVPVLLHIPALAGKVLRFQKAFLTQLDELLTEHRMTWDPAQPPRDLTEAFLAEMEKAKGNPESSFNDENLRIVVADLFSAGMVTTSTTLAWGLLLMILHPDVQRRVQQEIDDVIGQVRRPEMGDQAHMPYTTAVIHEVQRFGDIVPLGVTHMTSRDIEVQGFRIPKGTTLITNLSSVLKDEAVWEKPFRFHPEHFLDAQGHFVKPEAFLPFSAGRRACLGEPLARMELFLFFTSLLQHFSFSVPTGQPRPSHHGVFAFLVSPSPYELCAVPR
Sequence of CYP2C19 (P33261 whole entry): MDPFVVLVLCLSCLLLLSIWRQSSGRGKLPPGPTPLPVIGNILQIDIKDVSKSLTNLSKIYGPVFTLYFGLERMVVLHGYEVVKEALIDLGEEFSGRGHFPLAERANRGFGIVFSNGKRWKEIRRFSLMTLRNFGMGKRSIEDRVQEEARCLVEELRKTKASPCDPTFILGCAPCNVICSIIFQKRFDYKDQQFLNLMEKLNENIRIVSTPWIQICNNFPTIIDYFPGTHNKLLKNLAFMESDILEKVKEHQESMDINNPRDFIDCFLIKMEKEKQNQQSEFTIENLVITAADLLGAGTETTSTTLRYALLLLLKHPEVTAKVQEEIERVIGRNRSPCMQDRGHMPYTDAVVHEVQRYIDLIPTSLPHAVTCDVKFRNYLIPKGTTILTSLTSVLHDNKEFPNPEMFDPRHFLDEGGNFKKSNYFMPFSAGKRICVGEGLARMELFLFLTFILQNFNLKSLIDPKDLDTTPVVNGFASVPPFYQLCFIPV

## COCCCOc1cc(C[C@@H](C[C@H](N)[C@@H](O)C[C@H](C(=O)NCC(C)(C)C(N)=O)C(C)C)C(C)C)ccc1OC
[1]
  Compound recovery: 79.8%
[2]
  Compound recovery: 78%
[3]
  inhibition at 200 µM: 23%
[4]
  inhibition at 20 µM: -1.9%
[5]
  Compound recovery: 64.3%
[6]
  Compound recovery: <= 2%
[7]
  inhibition at 200 µM: 32.9%

## COCCCOc1cc(C[C@@H](C[C@H](N)[C@@H](O)C[C@H](C(=O)NCC([14CH3])([14CH3])C(N)=O)C(C)C)C(C)C)ccc1OC.O=C(O)/C=C/C(=O)O
[8]
  Radiolabel recovery: 4.5%
[9]
  Radiolabel recovery: 10.4%
[10]
  Radiolabel recovery: 75%
[11]
  Radiolabel recovery: 0.74%
[12]
  Radiolabel recovery: 35.6%
[13]
  CL: 1013.1 µL·min/nmol
[14]
  CL: 4.9 µL·min/nmol
[15]
  Radiolabel recovery: OUTCOME = Detected
[16]
  Radiolabel recovery: OUTCOME = Detected
[17]
  Cmax normalised: 0.12 (umol/L)/(mg/kg)
[18]
  AUC: 4.84 µM·h

## COCCCOc1cc(C[C@@H](C[C@H](N)[C@@H](O)C[C@H](C(=O)NCC(C)(C)C(N)=O)C(C)C)C(C)C)ccc1OC.COCCCOc1cc(C[C@@H](C[C@H](N)[C@@H](O)C[C@H](C(=O)NCC(C)(C)C(N)=O)C(C)C)C(C)C)ccc1OC.O=C(O)/C=C/C(=O)O [ALISKIREN FUMARATE]
[19]
  Cmax: 29.2 µM
[20]
  CREAT_CHANGE_BY: 130%
[21]
  Cmax: 8830 ng/mL
[22]
  Cmax: 5770 ng/mL
[23]
  Cmax: 10600 ng/mL
[24]
  Tmax: 3 h
[25]
  Cmax: 879 ng/mL
[26]
  AUC(0-t) at 24 h: 857 ng·h/mL
[27]
  AUC(0-t) at 24 h: 11800 ng·h/mL
[28]
  AUC normalised: 2.76 ((ng/mL).hours)/(mg/kg/day)
[29]
  AUC(0-t) at 24 h: 56200 ng·h/mL
[30]
  AUC normalised: 2.2 ((ug.h.ml-1)/(mg/kg)
[31]
  Tmax(1): 2 h
[32]
  Cmax: 0.395 µM
